Where “and” joins values, the source holds several entries; their conditions need not be identical. Identical values can stand only once. Entries after “also recorded” stand apart in the source; their conditions may differ.
Columns and labels:
[1] = system: CaV1.2 (α1C+β2B) channels in HEK293T cells; test: Perforated whole-cell patch clamp of Ba2+ current, forskolin stimulation of CaV1.2 reconstituted in HEK293T cells; type: cell-based, rabbit α1C, human β2B, mouse Rad
Description: The robust heterologous reconstitution of PKA regulation of L-type Ca^2+ currents has been long pursued as a crucial step. […] To preserve the normal intracellular milieu and signaling cascades, the inventors used perforated, whole-cell patch clamp to assess function. The inventors used Ba^2+ as the charge carrier to minimize inactivation and depolarized the membrane potential with either a voltage step to 0 mV or a voltage ramp from −60 mV to +60 mV.
In the above, with regard to clone construction and cell culture, all mouse N-terminal-GFP-tagged mouse Rad (accession #XM_006531206) constructs in a pEGFP-C1 vector were generated by gene-synthesis (Gene Universal). The human CaV2.2 (pSAD442-1) was a gift from Diane Lipscombe (Addgene plasmid #62574). HEK293T cells were cultured in DMEM with 10% FBS, 1% Pen/Strep, and transfected with 3 μg rabbit α1C (accession #X15539) or α1B (for CaV2.2 experiments), 3 μg human β2B (NM-201590.3) and 0.5 μg N-terminal-GFP-tagged mouse Rad using Lipofectamine 2000 (Thermo Fisher Scientific). The media was changed 4-6 hours after transfection. The cells were split onto coverslips coated with attachment factor protein (Gibco). Electrophysiological recordings were carried out at room temperature 24-48 hours after transfection.
For HEK293T cell experiments involving the forskolin-induced stimulation of CaV1.2 and CaV2.2 currents, perforated whole-cell patch clamp technique was implemented to minimize current run-down and preserve the intracellular milieu. Amphotericin B (Sigma A9528) was initially dissolved in DMSO (20 mg/ml) and used in the pipette solution at a final concentration of 200 μg/ml. The tip of the pipette was filled with amphotericin-free solution (in mM): 80 Cesium Gluconate, 40 CsCI, 10 HEPES, 10 BAPTA, 1 MgCl2, 1 Mg-ATP, pH adjusted to 7.2 with CsOH. The pipette was backfilled with (in mM): 125 CsCI, 10 HEPES, 4 CaCl2, 1 MgCl2, pH-7.2 with CsOH; containing amphotericin, 200 μg/ml. CaCl2 (4 mM) was added to the intracellular patch electrode solution to enable the detection of conversion from perforated to ruptured configuration. The external solution contained (in mM): 130 tetraethylammonium methanesulfonate, 10 HEPES, 1 MgCl2, 10 (with Rad expression) or 2 (without Rad expression) BaCI2, 5 Glucose, pH adjusted to pH 7.4 with CsOH. For experiments with HEK293T cells, in addition to step protocols, we used a ramp protocol with a 200 ms voltage ramp from −60 mV (or −70 mV for CaV1.3) to +60 mV applied every 10 s- to monitor the near-steady-state I-V relationship. All experiments were performed at room temperature, 22±1° C. Cells were selected based on co-transfection of a vector containing GFP in the absence of Rad, and GFP-conjugated Rad for the experiments with Rad transfected. For both cardiomyocytes and HEK293 cells, cells without a stable baseline (potentially due to run-down or run-up) were not studied.
The voltage steps protocol used in cardiomyocytes studies evaluated IIpeak=Ipeak (V), which was recalculated in […] to G=G(V) as G=I/(V−Erev). For HEK cells experiments, the inventors used a ramp protocol (FIG. 17B). The experimental records were I=I(t), where t=time. The inventors transformed these records to I=I(V), which were then further transformed to G=G(V) in […] (FIG. 17B).

[2] = system: CaV1.3 (α1D+β2B) channels in HEK293T cells; test: Perforated whole-cell patch clamp of Ba2+ current, forskolin stimulation of CaV1.3 in HEK293T cells; type: cell-based; conditions: cells expressing α1D+β2B+Rad
Experimental: In adrenal chromaffin cells and the sinus node cells of the heart, L-type CaV1.3 channels are robustly stimulated by PKA. […] Thus, like CaV1.2, Rad is the missing ingredient. For HEK293T cell experiments involving the forskolin-induced stimulation of CaV1.2 and CaV2.2 currents, perforated whole-cell patch clamp technique was implemented to minimize current run-down and preserve the intracellular milieu. Amphotericin B (Sigma A9528) was initially dissolved in DMSO (20 mg/ml) and used in the pipette solution at a final concentration of 200 μg/ml. The tip of the pipette was filled with amphotericin-free solution (in mM): 80 Cesium Gluconate, 40 CsCI, 10 HEPES, 10 BAPTA, 1 MgCl2, 1 Mg-ATP, pH adjusted to 7.2 with CsOH. The pipette was backfilled with (in mM): 125 CsCI, 10 HEPES, 4 CaCl2, 1 MgCl2, pH-7.2 with CsOH; containing amphotericin, 200 μg/ml. CaCl2 (4 mM) was added to the intracellular patch electrode solution to enable the detection of conversion from perforated to ruptured configuration. […] For experiments with HEK293T cells, in addition to step protocols, we used a ramp protocol with a 200 ms voltage ramp from -60 mV (or -70 mV for CaV1.3) to +60 mV applied every 10 s- to monitor the near-steady-state I-V relationship. All experiments were performed at room temperature, 22±1° C. Cells were selected based on co-transfection of a vector containing GFP in the absence of Rad, and GFP-conjugated Rad for the experiments with Rad transfected. For both cardiomyocytes and HEK293 cells, cells without a stable baseline (potentially due to run-down or run-up) were not studied. The voltage steps protocol used in cardiomyocytes studies evaluated […]), which was recalculated in […] to G=G(V) as […]). For HEK cells experiments, the inventors used a ramp protocol (FIG. 17B). The experimental records were I=I(t), where t=time. The inventors transformed these records to I=I(V), which were then further transformed to G=G(V) in […]). The parameters of voltage-dependent activation were obtained using a modified Boltzmann distribution. […]

[3] = system: CaV2.2 (α1B+β2B) channels in HEK cells; test: Perforated whole-cell patch clamp of Ba2+ current, forskolin stimulation of CaV2.2 in HEK cells; type: cell-based, human
Description: N-type Ca^2+ channels (CaV2.2) are widely expressed, play an essential role in neurotransmitter release, and are targets for the development of drugs to relieve chronic pain. The inventors expressed the CaV2.2 α1B subunit with β2B and Rad in HEK cells. […] Attenuating binding of Rad […] prevented the forskolin-induced modulation of CaV2.2 current (FIG. 19F). In the above, with regard to clone construction and cell culture, all mouse N-terminal-GFP-tagged mouse Rad (accession #XM_006531206) constructs in a pEGFP-C1 vector were generated by gene-synthesis (Gene Universal). The human CaV2.2 (pSAD442-1) was a gift from Diane Lipscombe (Addgene plasmid #62574). […] The media was changed 4-6 hours after transfection. The cells were split onto coverslips coated with attachment factor protein (Gibco). Electrophysiological recordings were carried out at room temperature 24-48 hours after transfection. For HEK293T cell experiments involving the forskolin-induced stimulation of CaV1.2 and CaV2.2 currents, perforated whole-cell patch clamp technique was implemented to minimize current run-down and preserve the intracellular milieu. Amphotericin B (Sigma A9528) was initially dissolved in DMSO (20 mg/ml) and used in the pipette solution at a final concentration of 200 μg/ml. The tip of the pipette was filled with amphotericin-free solution (in mM): 80 Cesium Gluconate, 40 CsCI, 10 HEPES, 10 BAPTA, 1 MgCl2, 1 Mg-ATP, pH adjusted to 7.2 with CsOH. The pipette was backfilled with (in mM): 125 CsCI, 10 HEPES, 4 CaCl2, 1 MgCl2, pH-7.2 with CsOH; containing amphotericin, 200 μg/ml. CaCl2 (4 mM) was added to the intracellular patch electrode solution to enable the detection of conversion from perforated to ruptured configuration. […] For experiments with HEK293T cells, in addition to step protocols, we used a ramp protocol with a 200 ms voltage ramp from -60 mV (or -70 mV for CaV1.3) to +60 mV applied every 10 s- to monitor the near-steady-state I-V relationship. All experiments were performed at room temperature, 22±1° C. Cells were selected based on co-transfection of a vector containing GFP in the absence of Rad, and GFP-conjugated Rad for the experiments with Rad transfected. For both cardiomyocytes and HEK293 cells, cells without a stable baseline (potentially due to run-down or run-up) were not studied. The voltage steps protocol used in cardiomyocytes studies evaluated […]), which was recalculated in […] to G=G(V) as […]). For HEK cells experiments, the inventors used a ramp protocol (FIG. 17B). The experimental records were I=I(t), where t=time. The inventors transformed these records to I=I(V), which were then further transformed to G=G(V) in […]). The parameters of voltage-dependent activation were obtained using a modified Boltzmann distribution. […]

[4] = system: CaV1.2 channels in cardiomyocytes; test: Whole-cell patch clamp of nisoldipine-insensitive Ca2+ current in cardiomyocytes of transgenic mice; type: cell-based, mouse
Description: With regard to the isolation of adult cardiac myocytes, mice ventricular myocytes were isolated by enzymatic digestion using a Langendorff perfusion apparatus. Cardiomyocytes were isolated from 8-12 week-old non-transgenic and transgenic mice.
With regard to whole cell patch clamp electrophysiology, isolated cardiomyocytes or HEK cells on glass 8×8 mm coverslips were placed in Bioptechs Delta T Dishes filled with solution containing (in mM): 112 NaCl, 5.4 KCl, 1.7 NaH2PO4. 1.6 MgCl2, 20.4 HEPES (pH 7.2), 30 Taurine, 2 DL-Carnitine, 10.3 Creatine, 5.4 Glucose. The petri dishes were mounted on the stage of an inverted microscope and served as a perfusion chamber. After establishing a seal and achieving whole-cell configuration, external solutions were changed by fast local perfusion method.
For cardiomyocytes, pipette resistance was between 1-3 ma Membrane currents were measured by conventional (ruptured) whole-cell patch-clamp method using a MultiClamp 700B or Axopath200B amplifier and pCLAMP 10.7 software (Molecular Devices). Capacitance transients and series resistance were compensated. Voltage was corrected for liquid junction potential (−10 mV) during analysis. Leak currents were subtracted by a P/4 protocol. […]

[5] = system: CaV1.2 neighbourhood proteins (Rad, PKA catalytic subunit, Sorbs2); test: APEX2 proximity labeling with TMT SPS MS3 in isolated cardiomyocytes, isoproterenol vs. no isoproterenol; type: cell-based, mouse; conditions: for decrease in Rad (proximity labeling, iso vs. no iso) / increase in PKA catalytic subunit (proximity labeling, iso vs. no iso): 1 μM isoproterenol, 10 minutes
Experimental: Thus, proximity-labeling in cardiomyocytes treated with isoproterenol was compared to untreated controls. Cardiomyocytes were enzymatically isolated from two α1C-APEX2 mice, mixed, loaded with biotin-phenol and exposed to isoproterenol or vehicle for 10 minutes at room temperature. For the final minute, labeling was initiated with H2O2. This was repeated for myocytes from 4 additional sets of mice (total: 5 sets of biological replicates; 10 mice). Biotinylated proteins were purified and detected using TMT SPS MS^3. The isobaric labeling allowed simultaneous quantification of all proteins measured rather than just a select subset, thus enabling statistical analysis of relative enrichment between vehicle and isoproterenol treatment. Candidates in the upper left quadrant have reduced labeling (likely indicating reduced proximity) after isoproterenol and candidates in the upper right quadrant have increased labeling (likely indicating increased proximity) after isoproterenol. Mitochondrial/nuclear proteins were removed from the analysis.
For the proximity labeling, isolated ventricular cardiomyocytes were incubated in labeling solution with 0.5 μM biotin-phenol (Iris-biotech) for 30 minutes. During the final 10 minutes of labeling, 1 μM isoproterenol (Sigma 15627) was added. To initiate labeling, H2O2 (Sigma H1009) was added to a final concentration of 1 mM for 1 min Exactly 1 minute after H2O2 treatment, the cells were washed three times with cold quenching solution containing (in mM) 10 Sodium ascorbate (VWR 95035-692), 5 Trolox (Sigma 238813), and 10 Sodium azide (Sigma S2002). After the cells were harvested by centrifugation, the quenching solution was aspirated and the pellet was flash-frozen and stored at −80° C. until streptavidin pull-down.
With regard to the processing of biotinylated proteins for mass spectrometry, proteins were precipitated with Trichloroacetic acid (TCA; Sigma T9159) and then centrifuged at 21,130×g at 4° C. for 10 minutes. The pellet was washed with −20° C. cold acetone (Sigma 650501), vortexed, and centrifuged at 21,130×g at 4° C. for 10 minutes. Following centrifugation, acetone was aspirated and the pellet was acetone-washed again three more times.

[6] = system: Rad in CaV1.2 neighbourhood; test: APEX2 proximity labeling with TMT mass spectrometry in Langendorff-perfused α1C-APEX2 hearts; parameters: species or system mouse; conditions: Langendorff-perfused α1C-APEX2 whole hearts; 1 μM isoproterenol, 5 minutes
Experimental: The inventors also probed the impact of isoproterenol on the CaV1.2 proteome signature in Langendorff-perfused whole hearts (FIG. 9B), tracking 2,610 proteins from 10 hearts in parallel (FIG. 6K, FIG. 15C and FIG. 16A). The inventors monitored phospholamban phosphorylation to confirm that the β-adrenergic signaling pathway in cardiomyocytes is preserved in the presence of biotin-phenol and H2O2 (FIG. 14C and FIG. 14D).
For biotinylation in Langendorff-perfused hearts, mice were injected with 5 mg/kg propranolol-HCl (Sigma PHR1308) to suppress adrenergic stimulation during the isoflurane anesthesia and cardiectomy. Hearts were retrograde perfused with Krebs' solution for 10 minutes prior to addition of biotin-phenol for 15 minutes. During the final 5 minutes, 1 μM Isoproterenol (Sigma 1351005) or vehicle was added to the perfusate. The hearts were then perfused with 1 mM H2O2 for 1 minute, followed by 3-minutes of perfusion of quenching solution. Electrocardiograms were monitored throughout the experiment to ensure viability of the preparation and an isoproterenol-induced increase in heart rate. […]

Rad = test: Whole cell proteomics (TMT SPS MS3) of non-transgenic cardiomyocytes, isoproterenol vs. no isoproterenol; type: cell-based, mouse; conditions: non-transgenic (NTG) mice cardiomyocytes; 10-minute isoproterenol
Experimental: With regard to whole cell proteomics, specifically cell lysis, protein digest and TMT labeling mass spectrometry analysis, the cells were lysed by homogenization (QIAshredder cartridges, Qiagen) in lysis buffer (2% SDS, 150 mM NaCl, 50 mM Tris pH 7.4). Lysates were reduced with 5 mM DTT, alkylated with 15 mM iodoacetamide for 30 minutes in the dark, alkylation reactions quenched with freshly prepared DTT added to a concentration of 50 mM and proteins precipitated by methanol/chloroform precipitation. Digests were carried out in 1M urea freshly prepared in 200 mM EPPS pH 8.5 in presence of 2% acetonitrile (v/v) with LysC (Wako, 2 mg/ml, used 1:75 w/w protease:substrates during digest) for 3 hours at room temperature and after subsequent addition of trypsin (Promega #V5111, stock 1:100 w/w protease:substrates) over night at 37° C. Missed cleavage rate was assayed from a small aliquot by mass spectrometry. […]
For the mass spectrometry analysis, data collection followed a MultiNotch MS^3 TMT method using an Orbitrap Lumos mass spectrometer coupled to a Proxeon EASY-nLC 1200 liquid chromatography (LC) system (both Thermo Fisher Scientific). […] In order to obtain quantitative information, MS^3 precursors were fragmented by high-energy collision-induced dissociation (HCD) and analyzed in the Orbitrap at a resolution of 50,000 at 200 Th. […]

[7] = system: CFP-tagged Rad localization in cardiomyocytes; test: Confocal fluorescence of CFP-Rad at membrane and in cytosol of cardiomyocytes before and after isoproterenol; type: cell-based; conditions: CFP-Rad adenovirus-infected rat cardiomyocytes; 5 minutes after superfusion
Description: Mass spectrometry identified phosphorylated proteins from biotinylated, streptavidin-purified samples from APEX2 mice, and from whole hearts of wild-type (WT) mice treated with isoproterenol. […] Rad, a member of the RGK family of GTP-binding proteins, is an inhibitor of voltage-gated Ca^2+ channels and is also a PKA target. […] To further explore whether β-agonists can alter membrane-localization of Rad relative, rat cardiomyocytes were infected with adenoviruses harboring cyan fluorescent protein (CFP)-tagged Rad. The fluorescence of CFP-Rad at the membrane and in the cytosol was quantified before and after isoproterenol. The number of exposures were limited to avoid photo-bleaching.

[8] = HEK cells expressing 35-mutant α1C+28-mutant β2B+Rad
[9] = cells expressing α1C+β2B+Rad, forskolin vs. no forskolin
[10] = CaV2.2 α1B+β2B co-expressed with Rad
[11] = CaV2.2 α1B+β2B co-expressed with Rem

## C=C[C@@]1(C)CC(=O)[C@]2(O)[C@@]3(C)[C@@H](O)CCC(C)(C)[C@@H]3[C@H](O)[C@H](OC(C)=O)[C@@]2(C)O1 [forskolin]
[1]; [8]
  increase of Gmax, as much as: ≤ 3.1 fold
  increase of Gmax, mean: 1.9 fold
  shift of V50 for activation: −3.3 mV
[1]; cells expressing 9*-α1C, β2B and Rad
  increase of Gmax, mean: 1.6 fold
[1]; cells expressing α1C+β2B+Rad
  shift of V50 for activation: −5 mV
[1]; [9]
  increase of maximal conductance (Gmax), as much as: ≤ 4.5 fold
  increase of maximal conductance (Gmax), mean: 1.5 fold and 1.6 fold
[2]
  increase of Gmax, as much as: ≤ 2.3 fold
  increase of Gmax, mean: 1.9 fold
  shift of V50 for activation: −4.3 mV
[3]; [10]
  increase of Gmax, mean: 2.2 fold
  shift of V50 for activation: −3.7 mV
[3]; [11]
  increase of Gmax: 1.6 fold
  shift of V50 for activation: −4.2 mV
[4]; 9* exon-containing CaV1.2 channels
  increase of Gmax, mean: 1.4 fold
[4]; transgenic pWT α1C cardiomyocytes, 10 μM forskolin
  increase of nisoldipine-insensitive maximal conductance (Gmax), mean: 1.4 fold

## CC(C)NCC(O)c1ccc(O)c(O)c1 (centres unmarked) [isoproterenol]
[5]; α1C-APEX2 and β2B-APEX2 cardiomyocytes and α1C-APEX2 whole hearts
  decrease in the amount of Rad, all three approaches: 30-50%
[5]; α1C-APEX2 cardiomyocytes
  decrease in Rad (proximity labeling, iso vs. no iso): ~50%
  increase in PKA catalytic subunit (proximity labeling, iso vs. no iso): 50%
[5]; α1C-APEX2 cardiomyocytes, isoproterenol 10 minutes
  reduction in Sorbin and SH3 domain containing 2 (Sorbs2): ~57%
[5]; β2B-APEX2 cardiomyocytes
  decrease in Rad (proximity labeling, iso vs. no iso): 30%
  increase in PKA catalytic subunit (proximity labeling, iso vs. no iso): 68%
[6]
  decrease in Rad (proximity labeling, iso vs. no iso): 36%
Rad
  effect on the amount of Rad (whole-cell, not proximity labeled): no significant effect; also recorded: unchanged
[7]
  decrease of Rad localized at the membrane: 21%±3%
  increase of cytosolic Rad: 20%±5%
